This is an account of results in patent publication US20070092577A1, “Dietary calcium for reducing the production of reactive oxygen species” (University of Tennessee Research Foundation, priority 2005, published 2007).

Each structure is given as a SMILES string.

The test system of one test is IL-15. Nature of the test: IL-15 expression in differentiated 3T3-L1 adipocytes. Type of test: cell-based, mouse. Here is the method: (§1) 3T3-L1 pre-adipocytes were incubated at a density of 8000 cells/cm^2 (10 cm^2 dish) and grown in Dulbecco's modified Eagle's medium (DMEM) containing 10% FBS and antibiotics (adipocyte medium) at 37° C. in 5% CO2 in air. Confluent pre-adipocytes were induced to differentiate with a standard differentiation medium consisting of DMEM-F10 (1:1, vol/vol) medium supplemented with 1% fetal bovine serum (FBS), 1 μM dexamethasone, isobutylmethylxanthine (IBMX) (0.5 mM) and antibiotics (1% Penicillin-Streptomycin). Pre-adipocytes were maintained in this differentiation medium for 3 days and subsequently cultured in adipocyte medium. Cultures were re-fed every 2-3 days to allow 90% cells to reach fully differentiation before conducting chemical treatment. […] Cell viability was measured via trypan blue exclusion. Adipocyte and muscle 18s, TNFα, IL-6, IL-8, IL-15 and adiponectin were quantitatively measured using a smart cycler real-time PCR system (Cepheid, Sunnyvale, Calif.) with a TaqMan 1000 Core Reagent Kit (Applied Biosystems, Branchburg, N.J.). […] Reactions of quantitative RT-PCR for standards and unknown samples were also performed according to the instructions of Smart Cycler System (Cepheid, Sunnyvale, Calif.) and TaqMan Real Time PCR Core Kit (Applied Biosystems, Branchburg, N.J.). The mRNA quantitation for each sample was further normalized using the corresponding 18s quantitation.

In the next test the test system is IL-6. Briefly: IL-6 expression in differentiated 3T3-L1 adipocytes. Type of test: cell-based, mouse. The following applies: for effect on IL-6 expression: 10 nmol/L, 48 h, adipocytes cultured alone. Here is the method: 3T3-L1 pre-adipocytes were incubated at a density of 8000 cells/cm^2 (10 cm^2 dish) and grown in Dulbecco's modified Eagle's medium (DMEM) containing 10% FBS and antibiotics (adipocyte medium) at 37° C. in 5% CO2 in air. Confluent pre-adipocytes were induced to differentiate with a standard differentiation medium consisting of DMEM-F10 (1:1, vol/vol) medium supplemented with 1% fetal bovine serum (FBS), 1 μM dexamethasone, isobutylmethylxanthine (IBMX) (0.5 mM) and antibiotics (1% Penicillin-Streptomycin). Pre-adipocytes were maintained in this differentiation medium for 3 days and subsequently cultured in adipocyte medium. Cultures were re-fed every 2-3 days to allow 90% cells to reach fully differentiation before conducting chemical treatment.
Cells were incubated in serum free medium overnight before chemical treatment. Chemicals were freshly diluted in adipocyte medium before treatment. […] Cell viability was measured via trypan blue exclusion.
Adipocyte and muscle 18s, TNFα, IL-6, IL-8, IL-15 and adiponectin were quantitatively measured using a smart cycler real-time PCR system (Cepheid, Sunnyvale, Calif.) with a TaqMan 1000 Core Reagent Kit (Applied Biosystems, Branchburg, N.J.). The primers and probe sets were obtained from Applied Biosystems TaqMan® Assays-on-Demand™ Gene Expression primers and probe set collection and utilized according to manufacture's instructions. Pooled adipocyte total RNA was serial-diluted in the range of 1.5625-25 ng and used to establish a standard curve; and total RNA for the unknown samples were also diluted in this range. Reactions of quantitative RT-PCR for standards and unknown samples were also performed according to the instructions of Smart Cycler System (Cepheid, Sunnyvale, Calif.) and TaqMan Real Time PCR Core Kit (Applied Biosystems, Branchburg, N.J.). The mRNA quantitation for each sample was further normalized using the corresponding 18s quantitation.
RAW 264 macrophages and 3T3-L1 preadipocytes (American Type Culture Collection) were incubated at a density of 8000 cells/cm2 (10 cm2 dish) and grown in Dulbecco's modified Eagle's medium (DMEM) containing 10% FBS and antibiotics (adipocyte medium) at 37° C. in 5% CO2 in air. […]
Adipocyte and muscle 18s, CD14, TNFα, MIP, M-CSF, IL-6 and MCP-1 were quantitatively measured using a Smart Cycler Real Time PCR System (Cepheid, Sunnyvale, Calif.) with a TaqMan 1000 Core Reagent Kit (Applied Biosystems, Branchburg, N.J.). […] Reactions of quantitative RT-PCR for standards and unknown samples were also performed according to the instructions of Smart Cycler System (Cepheid, Sunnyvale, Calif.) and TaqMan Real Time PCR Core Kit (Applied Biosystems, Branchburg, N.J.). The mRNA quantitation for each sample was further normalized using the corresponding 18s quantitation.

A further test relates to 3T3-L1 adipocytes. Nature of the test: DNA synthesis / cell proliferation (CyQUANT). The format is cell-based, murine. To be noted: 48 hours. Here is the method: 3T3-L1 preadipocytes were incubated at a density of 8000 cells/cm^2 (10 cm^2 dish) and grown in Dulbecco's modified Eagle's medium (DMEM) containing 10% FBS and antibiotics (adipocyte medium) at 37° C. in 5% CO2 in air. Confluent preadipocytes were induced to differentiate with a standard differentiation medium consisting of DMEM-F 10 (1:1, vol/vol) medium supplemented with 1% FBS, 1 μM dexamethasone, IBMX (0.5 mM) and antibiotics (1% Penicillin-Streptomycin). Preadipocytes were maintained in this differentiation medium for 3 days and subsequently cultured in adipocyte medium. Cultures were re-fed every 2-3 days to allow 90% of cells to reach full differentiation before conducting chemical treatment. Chemicals were freshly diluted in adipocyte medium before treatment. Cells were washed with fresh adipocyte medium, re-fed with medium containing the different treatments, and incubated at 37° C. in 5% CO2 in air before analysis. Cell viability was measured via trypan blue exclusion. Cells were plated in DMEM with different treatment in duplicate in 96-well plates. After 48 h, a CyQUANT Cell Proliferation Kit (Molecular Probes, Eugene, Oreg.) was used following the manufacturer's protocol a microplate fluorometer (Packard Instrument Company, Inc., Downers Grove, Ill.) was used to measure CyQUANT fluorescence. Cell viability was determined by Trypan blue exclusion examination.

In the next test the test system is adiponectin. Briefly: Adiponectin expression in differentiated 3T3-L1 adipocytes. The format is cell-based, mouse. To be noted: 100 nmol/L H2O2 or 1 μmol/L α±tocopherol, 48 h. Here is the method:
as §1

Turning to `OO` [H2O2, hydrogen peroxide], the “effect on IL-15 expression” value in the test on IL-15 (100 nmol/L H2O2, 48 h) is given as “no direct effect”. Moreover, the “increase of IL-6 expression” value in the test on IL-6 (100 nmol/L H2O2, 48 h, p<0.001) amounted to 167%. In the test with 3T3-L1 adipocytes (H2O2 100 nmol/L, p<0.001), the “increase of total DNA of cultured cells” value worked out at 39%. Moreover, in the test with adiponectin, the “effect on adiponectin production” value is reported as “without significant effect”.
For the molecule `C=C1/C(=C\C=C2/CCC[C@]3(C)[C@@H]([C@H](C)CCCC(C)(C)O)CC[C@@H]23)C[C@@H](O)C[C@@H]1O` [calcitriol, 1, 25-Dihydroxyvitamin D], the “effect on IL-6 expression” value in the test on IL-6 was “markedly stimulate”; in the test on IL-6 (listed as 1α, 25-(OH)2-D3) it was “markedly increased”. The “effect on glucose induced DNA synthesis” value in the test on 3T3-L1 adipocytes (added to glucose 30 mmol/L, nifedipine 10 μmol/L) was “augmented”.
For `Cc1c(C)c2c(c(C)c1O)CC[C@@](C)(CCC[C@H](C)CCC[C@H](C)CCCC(C)C)O2` [α-tocopherol], the “increase of IL-15 as compared to H2O2-treated cells” value with IL-15 (1 μmol/L α±tocopherol added to 100 nmol/L H2O2, 48 h, P=0.043) worked out at 2.2 fold. The “effect on hydrogen peroxide increased IL-6 expression” value in the test on IL-6 (1 μmol/L α±tocopherol plus 100 nmol/L H2O2, 48 h, p=0.016) was “attenuated”. The “effect on H2O2 induced DNA synthesis” value in the test on 3T3-L1 adipocytes (with H2O2 100 nmol/L, α-tocopherol 1 μmol/L, nifedipine 10 μmol/L) was “completely blocked”. For the same molecule, the “effect on adiponectin production” value in the test with adiponectin is recorded as “increased”.
